Assay results as given in the NIST ThermoML archive (doi:10.1021/je0502849).

Settings: Liquid, Pulse-echo method

CC(C)CC(C)(C)C [2,2,4-trimethylpentane]
speed of sound [m/s]
Settings | 293.15 K | 303.15 K | 313.15 K | 323.15 K | 333.15 K | 343.15 K | 353.15 K | 363.15 K | 373.15 K
100 kPa | 1104.6 | 1061.7 | 1019.1 | 977.9 | 935.8 | 897.3 | 858.2 | 817.2 | 780.4
10000 kPa | 1178.5 | 1139.3 | 1100.9 | 1063.5 | 1026.6 | 992.6 | 958 | 924.3 | 891
20000 kPa | 1244.6 | 1208.6 | 1173 | 1138.8 | 1105.2 | 1071.6 | 1041.7 | 1011.1 | 980.7
30000 kPa | 1304.8 | 1270.2 | 1237 | 1204.7 | 1173 | 1142.7 | 1114.1 | 1085.5 | 1057.5
40000 kPa | 1358.5 | 1326.8 | 1295.2 | 1264.6 | 1234.2 | 1205.7 | 1178.7 | 1151.4 | 1125.2
50000 kPa | 1410.3 | 1378.5 | 1349.3 | 1319 | 1290.2 | 1262.9 | 1236.1 | 1211.3 | 1185.9
60000 kPa | 1458.1 | 1427 | 1397.6 | 1369.8 | 1341.8 | 1315.4 | 1290.4 | 1265.7 | 1242.1
70000 kPa | 1502.5 | 1472.6 | 1443.4 | 1416.6 | 1390 | 1363.5 | 1339.5 | 1316.6 | 1293.1
80000 kPa | 1544.7 | 1515.6 | 1487.6 | 1461.2 | 1434.9 | 1410.8 | 1386.8 | 1364.4 | 1341.5
90000 kPa | 1584.5 | 1556.4 | 1529 | 1503.4 | 1479 | 1453.6 | 1431 | 1408.2 | 1386
100000 kPa | 1622.6 | 1594.5 | 1568.7 | 1543.4 | 1519 | 1495.3 | 1472.5 | 1449.9 | 1428.5
110000 kPa | 1658.9 | 1632.1 | 1605.9 | 1581.4 | 1557.7 | 1534 | 1512.1 | 1490.6 | 1469.2
120000 kPa | 1694 | 1667.5 | 1641.7 | 1617.8 | 1594.1 | 1571.7 | 1549.6 | 1529 | 1508.2
130000 kPa | 1727.5 | 1701.6 | 1676.3 | 1653.1 | 1629.5 | 1607.2 | 1585.9 | 1565.5 | 1545.1
140000 kPa | 1760.1 | 1734.3 | 1709.4 | 1686.4 | 1663.5 | 1641.7 | 1620.5 | 1600.8 | 1580.3
150000 kPa | 1791.1 | 1766.4 | 1741.7 | 1718.6 | 1696.2 | 1675 | 1654.1 | 1634.2 | 1614

CCC(C)C(C)C (stereo not drawn) [2,3-dimethylpentane]
speed of sound [m/s]
Settings | 293.15 K | 303.15 K | 313.15 K | 323.15 K | 333.15 K | 343.15 K | 353.15 K | 363.15 K | 373.15 K
100 kPa | 1149.5 | 1103.2 | 1061.2 | 1017.4 | 973.7 | 931 | 889.5 | 849.4 | 808.9
10000 kPa | 1220.2 | 1178.6 | 1138 | 1099.7 | 1061.7 | 1022.5 | 986.1 | 950.4 | 914.8
20000 kPa | 1284.8 | 1245.9 | 1207.8 | 1171.8 | 1136.5 | 1101.8 | 1067.4 | 1035.4 | 1003.1
30000 kPa | 1342.3 | 1306.5 | 1270.7 | 1236.2 | 1203.1 | 1170.5 | 1138.8 | 1108.4 | 1079
40000 kPa | 1396.2 | 1361.5 | 1327.2 | 1294.8 | 1263.1 | 1232 | 1201.8 | 1173.6 | 1145.4
50000 kPa | 1445.3 | 1411.9 | 1379.5 | 1348.2 | 1317.7 | 1287.5 | 1259.9 | 1232.3 | 1205.1
60000 kPa | 1491.9 | 1458.5 | 1428.2 | 1397.8 | 1368.8 | 1339.8 | 1312.3 | 1286.2 | 1260.3
70000 kPa | 1535.2 | 1503.4 | 1473.4 | 1444.3 | 1416 | 1388.3 | 1361.7 | 1336.7 | 1311.6
80000 kPa | 1576.5 | 1545.5 | 1516.6 | 1488.2 | 1460.6 | 1433.1 | 1407.9 | 1383.4 | 1358.8
90000 kPa | 1616.1 | 1585.9 | 1557.2 | 1529.5 | 1502.6 | 1476.4 | 1451 | 1427.8 | 1403.8
100000 kPa | 1653 | 1623.9 | 1595.8 | 1569.1 | 1542.8 | 1516.8 | 1492.5 | 1469.5 | 1446.4
110000 kPa | 1688.6 | 1660 | 1632.9 | 1606.4 | 1580.5 | 1555.6 | 1531.5 | 1508.7 | 1486.3
120000 kPa | 1723.2 | 1694.7 | 1668.4 | 1642.2 | 1617.1 | 1592.3 | 1569.2 | 1546.8 | 1524.6
130000 kPa | 1756.3 | 1728.8 | 1702.5 | 1676.9 | 1652.2 | 1627.9 | 1604.7 | 1583 | 1561.1
140000 kPa | 1788 | 1760.4 | 1735.5 | 1713.3 | 1685.7 | 1661.8 | 1639.3 | 1617.8 | 1596.4
150000 kPa | 1818.6 | 1792.3 | 1766.7 | 1742.2 | 1718.3 | 1694.8 | 1672.8 | 1650.9 | 1630.2
